Results: ChEMBL document CHEMBL3621127, “8-Hydroxyquinoline: a privileged structure with a broad-ranging pharmacological potential” (Medchemcomm, 2015)

Tests used:
[1] = Inhibition of Mycobacterium tuberculosis Fructose 1,6-bisphosphate aldolase class 2 expressed in Escherichia coli BL21(DE3) assessed as cleavage of fructose 1,6-bisphosphate by fluorescence assay
[2] = Acute toxicity in po dosed KM mouse measured for 14 days; type: organism-based; details: in vivo
[3] = molecular target: Amyloid-beta precursor protein (Homo sapiens, UniProt P05067); assay: Inhibition of self-induced amyloid beta (1 to 42) (unknown origin) aggregation after 48 hrs by ThT assay
Amyloid-beta precursor protein, sequence (P05067 whole entry): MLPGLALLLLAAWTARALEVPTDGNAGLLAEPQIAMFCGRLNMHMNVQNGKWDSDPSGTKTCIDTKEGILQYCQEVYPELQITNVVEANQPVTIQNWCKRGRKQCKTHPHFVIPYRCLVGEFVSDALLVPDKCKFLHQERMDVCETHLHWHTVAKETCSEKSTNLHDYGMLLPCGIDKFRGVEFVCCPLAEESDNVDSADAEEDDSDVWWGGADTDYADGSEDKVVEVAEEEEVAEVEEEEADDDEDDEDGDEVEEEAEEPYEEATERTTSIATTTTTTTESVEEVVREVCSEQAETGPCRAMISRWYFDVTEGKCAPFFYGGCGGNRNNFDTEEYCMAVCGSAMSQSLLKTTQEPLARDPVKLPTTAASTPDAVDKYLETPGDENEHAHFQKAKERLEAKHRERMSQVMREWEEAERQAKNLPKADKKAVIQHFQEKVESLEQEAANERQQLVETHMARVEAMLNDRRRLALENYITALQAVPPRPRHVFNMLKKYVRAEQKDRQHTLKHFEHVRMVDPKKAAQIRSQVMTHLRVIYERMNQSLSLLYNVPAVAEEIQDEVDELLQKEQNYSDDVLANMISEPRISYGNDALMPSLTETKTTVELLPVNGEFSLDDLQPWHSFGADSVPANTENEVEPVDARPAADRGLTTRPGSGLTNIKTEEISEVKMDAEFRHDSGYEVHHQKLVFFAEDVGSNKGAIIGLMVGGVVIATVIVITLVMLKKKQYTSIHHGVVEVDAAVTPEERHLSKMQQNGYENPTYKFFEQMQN

[4] = Selectivity index, ratio of CC50 for mouse J774A.1 cells to IC50 for amastigote form of Leishmania donovani MHOM//IN/80/Dd8 infected in mouse J774A.1 cells; type: functional
Leishmania donovani = assay: Antileishmanial activity against amastigote form of Leishmania donovani MHOM//IN/80/Dd8 infected in mouse J774A.1 cells after 72 hrs by luciferase reporter gene assay; type: functional, organism-based; details: MHOM//IN/80/Dd8, J774.A1, 72 h

SMILES | IC50 [1] [µM] | LD50 at 336 h [2] [mg/kg] | IC50 [3] [µM] | Ratio CC50/IC50 [4] | IC50 (Leishmania donovani) [µM]
O=C(O)c1ccc2cccc(O)c2n1 | 10 |  |  |  | 
Oc1ccc(/C=C/c2ccc(O)c3ncccc23)cc1 |  | > 2000 | 8.5 |  | 
COc1ccc(OC)c(/C=C/NC(=O)c2cc(O)c3cccc(OC)c3n2)c1 |  |  |  | 25.27 | 3.75
CCCCCCCCCCCCCCCCOP(=O)([O-])OCC[N+](C)(C)C [MILTEFOSINE] |  |  |  | 4.1 | 12.4
